Literature values, collected in patent publication US6200975A, “Substituted 1,2,4-triazolo[3,4-a]phthalazine derivatives as GABA alpha 5 ligands” (Merck Sharp & Dohme Limited, priority 1997, dated 2001).

Details: reported by McNamara and Skelton

## COC(=O)c1cc2c(cn1)[nH]c1ccccc12 [β-CCM]
  spatial learning in the Morris watermaze: enhanced spatial learning
